Measurements as given in patent US11339128B2 (Firmenich Incorporated, priority 2014, dated 2022).

Biological target: T1, T1R2/T1R3 taste receptor (Homo sapiens, UniProt Q7RTX0+Q8TE23)
T1 sequence (Q8TE23 20-839): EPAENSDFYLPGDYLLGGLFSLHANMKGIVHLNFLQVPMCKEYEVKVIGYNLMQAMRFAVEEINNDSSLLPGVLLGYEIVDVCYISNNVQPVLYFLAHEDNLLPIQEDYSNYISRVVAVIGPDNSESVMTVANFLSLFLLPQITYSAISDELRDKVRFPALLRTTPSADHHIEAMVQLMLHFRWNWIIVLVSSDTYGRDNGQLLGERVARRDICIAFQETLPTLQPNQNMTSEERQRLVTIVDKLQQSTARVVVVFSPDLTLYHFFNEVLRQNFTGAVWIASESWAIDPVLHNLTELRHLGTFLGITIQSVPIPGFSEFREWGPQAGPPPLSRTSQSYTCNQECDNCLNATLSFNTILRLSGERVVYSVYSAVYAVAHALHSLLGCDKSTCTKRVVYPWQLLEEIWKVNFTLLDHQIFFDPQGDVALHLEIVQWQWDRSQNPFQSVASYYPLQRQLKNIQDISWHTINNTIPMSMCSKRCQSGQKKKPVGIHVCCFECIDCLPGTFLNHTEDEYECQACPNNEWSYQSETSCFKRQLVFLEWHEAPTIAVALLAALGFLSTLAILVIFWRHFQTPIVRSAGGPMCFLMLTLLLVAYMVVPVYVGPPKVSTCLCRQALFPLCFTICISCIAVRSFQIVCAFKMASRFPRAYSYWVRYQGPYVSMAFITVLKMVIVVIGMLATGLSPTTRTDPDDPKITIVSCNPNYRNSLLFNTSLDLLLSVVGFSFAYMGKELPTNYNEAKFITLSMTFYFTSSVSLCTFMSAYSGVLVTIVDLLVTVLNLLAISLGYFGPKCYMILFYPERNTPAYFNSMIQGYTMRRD
T1 sequence (Q7RTX0 21-852): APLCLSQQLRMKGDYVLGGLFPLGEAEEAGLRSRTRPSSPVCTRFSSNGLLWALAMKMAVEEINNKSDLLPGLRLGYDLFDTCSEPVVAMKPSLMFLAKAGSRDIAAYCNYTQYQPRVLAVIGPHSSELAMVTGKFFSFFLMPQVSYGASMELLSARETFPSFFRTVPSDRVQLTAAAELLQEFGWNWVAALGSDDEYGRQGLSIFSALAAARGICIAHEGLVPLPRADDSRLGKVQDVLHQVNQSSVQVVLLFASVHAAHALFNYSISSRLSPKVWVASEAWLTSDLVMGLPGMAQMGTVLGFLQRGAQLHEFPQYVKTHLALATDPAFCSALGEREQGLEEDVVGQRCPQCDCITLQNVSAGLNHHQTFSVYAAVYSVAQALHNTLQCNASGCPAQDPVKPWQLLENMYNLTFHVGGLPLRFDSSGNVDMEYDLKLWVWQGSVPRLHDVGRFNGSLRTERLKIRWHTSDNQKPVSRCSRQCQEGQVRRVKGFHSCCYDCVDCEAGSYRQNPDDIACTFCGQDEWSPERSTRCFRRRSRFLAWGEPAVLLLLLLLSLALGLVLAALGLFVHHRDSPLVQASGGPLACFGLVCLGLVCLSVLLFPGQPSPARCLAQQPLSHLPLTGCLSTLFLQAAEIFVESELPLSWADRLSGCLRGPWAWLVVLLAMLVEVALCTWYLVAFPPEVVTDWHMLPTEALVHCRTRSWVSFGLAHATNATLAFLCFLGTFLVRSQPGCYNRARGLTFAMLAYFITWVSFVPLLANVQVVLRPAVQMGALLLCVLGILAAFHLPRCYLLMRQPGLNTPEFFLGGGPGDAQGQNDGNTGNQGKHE
Assay: Receptor-based assay: sweetener EC50 enhancement ratio with and without test compound
Assay type: cell-based
Details: for Sucrose Enhancement EC50 Ratio: sweetener sucrose; for Sucralose Enhancement EC50 Ratio: sweetener sucralose; for Fructose Enhancement EC50 Ratio: sweetener fructose
How it was run: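 Sweetener (sucrose, sucralose, fructose) EC50 measured alone and with 1, 3, 10 or 50 μM test compound. Enhancement ratio = EC50 without/with compound; A = >1 to <10, B = 10–20, C = >20.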

SMILES	Sucrose Enhancement EC50 Ratio (1 μM test compound)	Sucrose Enhancement EC50 Ratio (3 μM test compound)	Sucrose Enhancement EC50 Ratio (10 μM test compound)	Sucralose Enhancement EC50 Ratio (3 μM test compound)	Sucralose Enhancement EC50 Ratio (10 μM test compound)	Fructose Enhancement EC50 Ratio (10 μM test compound)	Fructose Enhancement EC50 Ratio (50 μM test compound)
CO[C@H]1CC[C@@H](Oc2cccc3nc(C)c(C(=O)O)c(N)c23)CC1 [Compound 106]	A (an enhancement ratio of greater than 1 and less than 10)	A (an enhancement ratio of greater than 1 and less than 10)	A (an enhancement ratio of greater than 1 and less than 10)	–	–	–	–
Cc1nc2cccc(O[C@H]3CC[C@H](NC(=O)COCC4CCCCC4)CC3)c2c(N)c1C(=O)O [Compound 337]	A (an enhancement ratio of greater than 1 and less than 10)	C (an enhancement ratio greater than 20)	–	–	–	–	–
Cc1nc2cccc(O[C@H]3CC[C@H](NC(=O)COCC(C)(C)C)CC3)c2c(N)c1C(=O)O [Compound 301, 4-Amino-2-methyl-5-((trans-4-(2-(neopentyloxy)acetamido)cyclohexyl)oxy) quinoline-3-carboxylic acid]	B (an enhancement ratio from 10 to 20)	B (an enhancement ratio from 10 to 20)	–	B (an enhancement ratio from 10 to 20)	–	–	–
CCCc1ccnc(N[C@H]2CC[C@H](Oc3cccc4nc(C)c(C(=O)O)c(N)c34)CC2)n1 [Compound 709]	A (an enhancement ratio of greater than 1 and less than 10)	A (an enhancement ratio of greater than 1 and less than 10)	A (an enhancement ratio of greater than 1 and less than 10)	A (an enhancement ratio of greater than 1 and less than 10)	A (an enhancement ratio of greater than 1 and less than 10)	–	–
Cc1nc2cccc(O[C@H]3CC[C@H](NC(=O)C4CCC4)CC3)c2c(N)c1C(=O)O [Compound 320]	A (an enhancement ratio of greater than 1 and less than 10)	B (an enhancement ratio from 10 to 20)	B (an enhancement ratio from 10 to 20)	–	B (an enhancement ratio from 10 to 20)	–	–
Cc1nc2cccc(O[C@H]3CC[C@H](NC(=O)CN)CC3)c2c(N)c1C(=O)O [Compound 401]	A (an enhancement ratio of greater than 1 and less than 10)	A (an enhancement ratio of greater than 1 and less than 10)	A (an enhancement ratio of greater than 1 and less than 10)	–	A (an enhancement ratio of greater than 1 and less than 10)	A (an enhancement ratio of greater than 1 and less than 10)	–
COc1cnc(N[C@H]2CC[C@H](Oc3cccc4nc(C)c(C(=O)O)c(N)c34)CC2)nc1 [Compound 703]	A (an enhancement ratio of greater than 1 and less than 10)	A (an enhancement ratio of greater than 1 and less than 10)	B (an enhancement ratio from 10 to 20)	B (an enhancement ratio from 10 to 20)	B (an enhancement ratio from 10 to 20)	A (an enhancement ratio of greater than 1 and less than 10)	–
Cc1nc2cccc(O[C@H]3CC[C@H](NC(=O)COCC4CCCC4)CC3)c2c(N)c1C(=O)O [Compound 338]	A (an enhancement ratio of greater than 1 and less than 10)	–	–	–	–	–	–
Cc1nc2cccc(O[C@H]3CC[C@H](NC(=O)CO[C@@H]4C[C@H](C)CC[C@H]4C(C)C)CC3)c2c(N)c1C(=O)O [Compound 328]	A (an enhancement ratio of greater than 1 and less than 10)	A (an enhancement ratio of greater than 1 and less than 10)	C (an enhancement ratio greater than 20)	–	–	–	–
CCc1nc2cccc(O[C@H]3CC[C@H](C(C)(C)C)CC3)c2c(N)c1C(=O)O [Compound 204]	A (an enhancement ratio of greater than 1 and less than 10)	A (an enhancement ratio of greater than 1 and less than 10)	A (an enhancement ratio of greater than 1 and less than 10)	–	–	–	–
Cc1cnc(N[C@H]2CC[C@H](Oc3cccc4nc(C)c(C(=O)O)c(N)c34)CC2)nc1 [Compound 705]	A (an enhancement ratio of greater than 1 and less than 10)	B (an enhancement ratio from 10 to 20)	B (an enhancement ratio from 10 to 20)	A (an enhancement ratio of greater than 1 and less than 10)	B (an enhancement ratio from 10 to 20)	A (an enhancement ratio of greater than 1 and less than 10)	–
Cc1nccc(N[C@H]2CC[C@H](Oc3cccc4nc(C)c(C(=O)O)c(N)c34)CC2)n1 [Compound 714]	A (an enhancement ratio of greater than 1 and less than 10)	A (an enhancement ratio of greater than 1 and less than 10)	A (an enhancement ratio of greater than 1 and less than 10)	A (an enhancement ratio of greater than 1 and less than 10)	A (an enhancement ratio of greater than 1 and less than 10)	A (an enhancement ratio of greater than 1 and less than 10)	A (an enhancement ratio of greater than 1 and less than 10)
Cc1nc2cccc(O[C@H]3CC[C@H](NC(=O)Cn4ccnc4)CC3)c2c(N)c1C(=O)O [Compound 325]	A (an enhancement ratio of greater than 1 and less than 10)	B (an enhancement ratio from 10 to 20)	–	A (an enhancement ratio of greater than 1 and less than 10)	–	–	–
Cc1nc2cccc(OC3CCC(C)(C)CC3)c2c(N)c1C(=O)O [Compound 103]	C (an enhancement ratio greater than 20)	C (an enhancement ratio greater than 20)	–	–	–	–	–
COCC(=O)NC[C@H]1CC[C@H](Oc2cccc3nc(C)c(C(=O)O)c(N)c23)CC1 [Compound 601]	A (an enhancement ratio of greater than 1 and less than 10)	C (an enhancement ratio greater than 20)	C (an enhancement ratio greater than 20)	–	–	A (an enhancement ratio of greater than 1 and less than 10)	–
CCC(CC)COCC(=O)N[C@H]1CC[C@H](Oc2cccc3nc(C)c(C(=O)O)c(N)c23)CC1 [Compound 331]	A (an enhancement ratio of greater than 1 and less than 10)	A (an enhancement ratio of greater than 1 and less than 10)	C (an enhancement ratio greater than 20)	–	–	–	–
Cc1nc2cccc(O[C@H]3CC[C@H](NC(=O)COCC4CCOCC4)CC3)c2c(N)c1C(=O)O [Compound 339]	A (an enhancement ratio of greater than 1 and less than 10)	B (an enhancement ratio from 10 to 20)	–	–	–	–	–
CCc1nc2cccc(O[C@H]3CC[C@@H](C)CC3)c2c(N)c1C(=O)O [Compound 202]	A (an enhancement ratio of greater than 1 and less than 10)	A (an enhancement ratio of greater than 1 and less than 10)	A (an enhancement ratio of greater than 1 and less than 10)	–	–	–	–
